From the SangsterLogP compilation

Test: method code SF, from PMID: 5081587

| Compound | logP |
| --- | --- |
| O=P1(N(CCCl)CCCl)NCCCO1 (stereo not drawn) | 0.63 |
| O=NN(CCCl)C(=O)NCCCl | 1.53 |
| O=NN(CCCl)C(=O)NC1CCCC1 | 2.19 |
| O=NN(CCCl)C(=O)NC1CCS(=O)(=O)CC1 | 0.19 |
| O=NN(CCF)C(=O)NC1CSCSC1 | 1.54 |
| O=NN(CCCl)C(=O)NC1C=CCCC1 (stereo not drawn) | 2.45 |

Second part, the compound after the results:

| logP | Compound |
| --- | --- |
| 0.37 | O=NN(CCCl)C(=O)NC1CCC(=O)NC1=O (stereo not drawn) |
| 2.08 | O=NN(CCCl)C(=O)NC1CSCSC1 |
| 1.43 | O=NN(CCF)C(=O)NC1CCSCC1 |
| 2.07 | O=NN(CCCl)C(=O)NC1CCSCC1 |
| -0.24 | CN(C)/N=N/c1nc[nH]c1C(N)=O |
| 2.73 | O=NN(CCCl)C(=O)NC1CCCCC1Cl (stereo not drawn) |
| 2.98 | O=NN(CCCl)C(=O)NC1CC2CCC1C2 (stereo not drawn) |
